From ChEMBL document CHEMBL2163318, “Phenylalanine derivatives as GPR142 agonists for the treatment of type II diabetes” (Bioorg Med Chem Lett, 2012)
Active and inactive are the calls of the source. The rule behind the calls is not given here.

Legend:
[1] = test system: Mus musculus; experiment: Antidiabetic activity in B6D2F1 Harlan mouse assessed as decrease in blood glucose level at 30 mg/kg, sc administered 15 mins prior glucose challenge measured 7.5 mins post glucose challenge by glucometer analysis; assay type: functional; parameters: scale not given: the % may be the effect or the level left; conditions: route subcutaneous
[2] = test system: Mus musculus; experiment: Antidiabetic activity in B6D2F1 Harlan mouse assessed as increase in serum insulin level at 0.30 mg/kg, sc administered 15 mins prior glucose challenge measured 7.5 mins post glucose challenge by ELISA; assay type: functional; conditions: dose 0.3 mg/kg; route subcutaneous
[3] = test system: Mus musculus; experiment: Antidiabetic activity in B6D2F1 Harlan mouse assessed as increase in serum insulin level at 5 mg/kg, sc administered 15 mins prior glucose challenge measured 7.5 mins post glucose challenge by ELISA; assay type: functional; conditions: route subcutaneous
[4] = test system: Mus musculus; experiment: Antidiabetic activity in B6D2F1 Harlan mouse assessed as decrease in blood glucose level at 1 mg/kg, sc administered 15 mins prior glucose challenge measured 7.5 mins post glucose challenge by glucometer analysis; assay type: functional; parameters: scale not given: the % may be the effect or the level left; conditions: route subcutaneous
[5] = test system: Mus musculus; experiment: Antidiabetic activity in B6D2F1 Harlan mouse assessed as decrease in blood glucose level at 5 mg/kg, sc administered 15 mins prior glucose challenge measured 7.5 mins post glucose challenge by glucometer analysis; assay type: functional; parameters: scale not given: the % may be the effect or the level left; conditions: route subcutaneous
[6] = Mean residence time in rat at 2 mg/kg, po; assay type: ADME, organism-based; parameters: dose 2 mg/kg, route oral; conditions: in vivo
[7] = target: T1, Probable G-protein coupled receptor 142 (Mus musculus) (UniProt Q7TQN9); experiment: Agonist activity at mouse GPR142 expressed in HEK293 cells by inositol phosphate accumulation assay relative to control; assay type: functional, cell-based
T1 sequence (whole entry): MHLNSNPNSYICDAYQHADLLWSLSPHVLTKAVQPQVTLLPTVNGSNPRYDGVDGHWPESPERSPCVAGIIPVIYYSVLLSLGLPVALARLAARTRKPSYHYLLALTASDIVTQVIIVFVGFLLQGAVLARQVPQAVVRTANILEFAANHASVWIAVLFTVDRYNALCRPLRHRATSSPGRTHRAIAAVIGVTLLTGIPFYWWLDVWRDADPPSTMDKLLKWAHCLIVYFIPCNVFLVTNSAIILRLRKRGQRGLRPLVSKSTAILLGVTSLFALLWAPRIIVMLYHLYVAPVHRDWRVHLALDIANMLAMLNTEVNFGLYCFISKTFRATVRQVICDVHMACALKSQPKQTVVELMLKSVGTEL

[8] = test system: Mus musculus; experiment: Antidiabetic activity in B6D2F1 Harlan mouse assessed as decrease in blood glucose level at 0.30 mg/kg, sc administered 15 mins prior glucose challenge measured 7.5 mins post glucose challenge by glucometer analysis; assay type: functional; parameters: scale not given: the % may be the effect or the level left; conditions: dose 0.3 mg/kg; route subcutaneous
[9] = Clearance in rat at 0.89 mg/kg, iv; assay type: ADME, organism-based; parameters: dose 0.89 mg/kg, route intravenous; conditions: in vivo
[10] = test system: Mus musculus; experiment: Antidiabetic activity in B6D2F1 Harlan mouse assessed as decrease in blood glucose level at 3 mg/kg, sc administered 15 mins prior glucose challenge measured 7.5 mins post glucose challenge by glucometer analysis; assay type: functional; parameters: scale not given: the % may be the effect or the level left; conditions: route subcutaneous
[11] = test system: Mus musculus; experiment: Antidiabetic activity in B6D2F1 Harlan mouse assessed as increase in serum insulin level at 1 mg/kg, sc administered 15 mins prior glucose challenge measured 7.5 mins post glucose challenge by ELISA; assay type: functional; conditions: route subcutaneous
[12] = test system: Mus musculus; experiment: Antidiabetic activity in sc dosed B6D2F1 Harlan mouse assessed as increase in serum insulin level administered 15 mins prior glucose challenge measured 7.5 mins post glucose challenge by ELISA; assay type: functional, organism-based
[13] = test system: Mus musculus; experiment: Antidiabetic activity in B6D2F1 Harlan mouse assessed as increase in serum insulin level at 30 mg/kg, sc administered 15 mins prior glucose challenge measured 7.5 mins post glucose challenge by ELISA; assay type: functional; conditions: route subcutaneous
[14] = Metabolic stability of rat microsomes assessed as compound turnover at 1 uM after 30 mins by LC-MS analysis; assay type: ADME, Microsome; conditions: read-out: Drug metabolism
[15] = Half life in rat at 0.89 mg/kg, iv; assay type: ADME, organism-based; parameters: dose 0.89 mg/kg, route intravenous; conditions: in vivo
[16] = test system: Mus musculus; experiment: Antidiabetic activity in B6D2F1 Harlan mouse assessed as decrease in blood glucose level at 0.10 mg/kg, sc administered 15 mins prior glucose challenge measured 7.5 mins post glucose challenge by glucometer analysis; assay type: functional, organism-based; parameters: dose 0.1 mg/kg
[17] = test system: Mus musculus; experiment: Antidiabetic activity in B6D2F1 Harlan mouse assessed as increase in serum insulin level at 0.10 mg/kg, sc administered 15 mins prior glucose challenge measured 7.5 mins post glucose challenge by ELISA; assay type: functional, organism-based; parameters: dose 0.1 mg/kg
[18] = AUC in rat at 2 mg/kg, po; assay type: ADME, organism-based; parameters: dose 2 mg/kg, route oral; conditions: plasma
[19] = target: T2, Probable G-protein coupled receptor 142 (Homo sapiens) (UniProt Q7Z601); experiment: Agonist activity at human GPR142 expressed in HEK293 cells assessed as inositol phosphate accumulation at 10 uM after 1 hr by scintillation counting; assay type: functional, cell-based
T2 sequence (whole entry): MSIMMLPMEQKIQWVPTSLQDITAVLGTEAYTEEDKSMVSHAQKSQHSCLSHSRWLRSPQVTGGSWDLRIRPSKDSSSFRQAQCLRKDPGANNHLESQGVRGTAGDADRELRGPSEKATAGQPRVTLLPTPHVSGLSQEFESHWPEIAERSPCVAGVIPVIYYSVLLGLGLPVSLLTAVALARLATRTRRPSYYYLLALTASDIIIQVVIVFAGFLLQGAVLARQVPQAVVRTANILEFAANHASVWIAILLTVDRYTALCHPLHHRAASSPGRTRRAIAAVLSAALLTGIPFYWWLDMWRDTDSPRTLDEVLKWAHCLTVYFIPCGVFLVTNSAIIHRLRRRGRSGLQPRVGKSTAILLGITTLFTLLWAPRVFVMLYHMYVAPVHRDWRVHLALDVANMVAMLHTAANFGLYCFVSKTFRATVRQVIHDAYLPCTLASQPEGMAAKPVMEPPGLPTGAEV

[20] = target: T3, Probable G-protein coupled receptor 142 (Homo sapiens, UniProt Q7Z601); experiment: Agonist activity at human GPR142 expressed in HEK293 cells assessed as inositol phosphate accumulation after 1 hr by scintillation counting; assay type: functional, cell-based
T3 sequence (Q7Z601 whole entry): T2 sequence (whole entry)

[21] = Oral bioavailability in rat at 2 mg/kg; assay type: ADME, organism-based; conditions: in vivo
[22] = Volume of distribution at steady state in rat at 0.89 mg/kg, iv; assay type: ADME, organism-based; parameters: dose 0.89 mg/kg, route intravenous; conditions: in vivo, read-out: Vdss
[23] = AUC in rat at 0.89 mg/kg, iv; assay type: ADME, organism-based; parameters: dose 0.89 mg/kg, route intravenous; conditions: plasma
[24] = target: T4, Probable G-protein coupled receptor 142 (Mus musculus, UniProt Q7TQN9); experiment: Agonist activity at mouse GPR142 expressed in HEK293 cells by inositol phosphate accumulation assay; assay type: functional, cell-based
T4 sequence (Q7TQN9 whole entry): T1 sequence (whole entry)

[25] = test system: Mus musculus; experiment: Antidiabetic activity in sc dosed B6D2F1 Harlan mouse assessed as decrease in blood glucose level administered 15 mins prior glucose challenge measured 7.5 mins post glucose challenge by glucometer analysis; assay type: functional, organism-based
[26] = Metabolic stability of human microsomes assessed as compound turnover at 1 uM after 30 mins by LC-MS analysis; assay type: ADME, Microsome; conditions: read-out: Drug metabolism
[27] = test system: Mus musculus; experiment: Antidiabetic activity in B6D2F1 Harlan mouse assessed as increase in serum insulin level at 3 mg/kg, sc administered 15 mins prior glucose challenge measured 7.5 mins post glucose challenge by ELISA; assay type: functional; conditions: route subcutaneous

Q: For `O=C(Nc1cc(-c2ccncc2)c[nH]c1=O)[C@H](Cc1ccccc1)NC1(c2ccccn2)CC1`, which Activity [1] is on record?
A: The Activity was 13%.

Q: And the Activity [2]?
A: The Activity was 15%.

Q: And the Activity [3]?
A: Its Activity is 81%.

Q: And the Activity [4]?
A: The Activity was 3%.

Q: What about the Activity [5] of the same molecule?
A: Its Activity is 15%.

Q: What about the MRT [6] of the same molecule?
A: Its MRT is 107 min.

Q: What about the Emax [7] of the same molecule?
A: The Emax was 81%.

Q: And the Activity [8]?
A: Its Activity is 0%.

Q: And the clearance [9]?
A: Its clearance is 83.3 mL/min/kg.

Q: And the Activity [10]?
A: Its Activity is 4%.

Q: What about the Activity [11] of the same molecule?
A: Its Activity is 41%.

Q: And the Activity [12]?
A: The Activity was “Dose-dependent effect”.

Q: And the EC50 [12]?
A: Its EC50 is 0.29 µM.

Q: What about the Activity [13] of the same molecule?
A: Its Activity is 98%.

Q: What about the metabolised at 0.5 h, 1 µM [14] of the same molecule?
A: Its metabolised at 0.5 h, 1 µM is 60%.

Q: And the half-life [15]?
A: Its half-life is 12 min.

Q: And the Activity [16]?
A: The Activity was “inactive”.

Q: And the Activity [17]?
A: The Activity was “inactive”.

Q: What about the AUC [18] of the same molecule?
A: Its AUC is 77 ng·h/mL.

Q: What about the Emax [19] of the same molecule?
A: The Emax was 127%.

Q: What about the EC50 [20] of the same molecule?
A: The EC50 was 0.054 µM.

Q: What about the bioavailability [21] of the same molecule?
A: Its bioavailability is 20%.

Q: What about the Vd [22] of the same molecule?
A: The Vd was 1.1 L/kg.

Q: And the AUC [23]?
A: Its AUC is 177 ng·h/mL.

Q: What about the EC50 [24] of the same molecule?
A: Its EC50 is 0.0018 µM.

Q: What about the Activity [25] of the same molecule?
A: The Activity was “Dose-dependent effect”.

Q: And the EC50 [25]?
A: Its EC50 is 0.85 µM.

Q: And the metabolised at 0.5 h, 1 µM [26]?
A: The metabolised at 0.5 h, 1 µM was less than 10%.

Q: And the Activity [27]?
A: Its Activity is 58%.
